As a reminder, the pEC50 is the negative decadic logarithm of the EC50, by convention in mol/L. A word on the EC50: it is the midpoint of the concentration-response curve.

In the test the test system is genotype 1b (Con-1) HCV replicon. Description: HCV replicon luciferase assay, genotype 1b (Con-1). Format: cell-based. The following applies: genotype 1b HCV replicon, Huh-7 cells, Renilla luciferase, 3 days; for pEC50: read-out: EC50 1b (class); for EC50: read-out: EC50 (uM) 1b. As for the experimental part:
The cell lines used to evaluate compounds consist of a human hepatocyte derived cell line (Huh-7) that constitutively expresses a genotype 1b (Con-1) HCV replicon or a genotype 1b (Con-1) HCV replicon with an asparagine replacing the cysteine at amino acid 316, or a genotype 2a (JFH-1) replicon, containing a Renilla luciferase reporter gene. These cells were maintained in Dulbecco's modified Eagle medium (DMEM) containing 10% FBS, 100 U/mL penicillin/streptomycin and 1.0 mg/mL G418.
To evaluate compound efficacy, titrated compounds were transferred to sterile 384-well tissue culture treated plates, and the plates were seeded with HCV replicon cells (50 μL at a density of 2.4×10^3 cells/well) in DMEM containing 4% FBS (final DMSO concentration at 0.5%). After 3 days incubation at 37° C., cells were analyzed for Renilla Luciferase activity using the EnduRen substrate (Promega cat #E6485) according to the manufacturer's directions. Briefly, the EnduRen substrate was diluted in DMEM and then added to the plates to a final concentration of 7.5 μM. The plates were incubated for at least 1 h at 37° C. then read on a Viewlux Imager (PerkinElmer) using a luminescence program. The 50% effective concentration (EC50) was calculated using the four-parameter logistic formula noted above.

pEC50: −log10 of the molar value. Where two headings read alike, the source gives them in different places.

Take `CNC(=O)c1c(-c2ccc(F)cc2)oc2nc(Cl)c(-c3ccc(OC)c(C(=O)NC(C)(C)C#N)c3)cc12` [Compound 10001]: for the setting “Hepatitis C virus, Huh-7, 72 h”, the pEC50 was over 7.00 and the EC50 came to 0.0738 µM.

For the compound `CNC(=O)c1c(-c2ccc(F)cc2)oc2nc(Cl)c(-c3ccc(OC)c(C(=O)NC4(C#N)CCC4)c3)cc12` [Compound 10002], the pEC50 (Hepatitis C virus, Huh-7, 72 h) is over 7.00. On to `CNC(=O)c1c(-c2ccc(F)cc2)oc2nc(Cl)c(-c3ccc(OC)c(C(=O)NC4(C#N)CCCC4)c3)cc12` [Compound 10003], for which, where the note is “Hepatitis C virus, Huh-7, 72 h”, the pEC50 was over 7.00. As to `CNC(=O)c1c(-c2ccc(F)cc2)oc2nc(Cl)c(-c3cccc(C(=O)NC(C)(C)C#N)c3)cc12` [Compound 10004], under “Hepatitis C virus, Huh-7, 72 h”, the pEC50 is 6.00 to 7.00 and the EC50 amounted to 0.105 µM. Consider `CNC(=O)c1c(-c2ccc(F)cc2)oc2nc(Cl)c(-c3cccc(C(=O)NC4(C#N)CCC4)c3)cc12` [Compound 10005], for which the pEC50 (Hepatitis C virus, Huh-7, 72 h) was over 7.00. For the compound `CNC(=O)c1c(-c2ccc(F)cc2)oc2nc(Cl)c(-c3cccc(C(=O)NC4(C#N)CCCC4)c3)cc12` [Compound 10006], where the note is “Hepatitis C virus, Huh-7, 72 h”, the pEC50 was over 7.00 and the EC50 stood at 0.076 µM.

For the compound `CNC(=O)c1c(-c2ccc(F)cc2)oc2nc(CCC(F)(F)F)c(-c3cccc(C(=O)NC4(C#N)CCC4)c3)cc12` [Compound 11002], the pEC50 (Hepatitis C virus, Huh-7, 72 h) is over 7.00. `CNC(=O)c1c(-c2ccc(F)cc2)oc2nc(CCC(F)(F)F)c(-c3cccc(C(=O)NC4(C#N)CCCC4)c3)cc12` [Compound 11003]: under “Hepatitis C virus, Huh-7, 72 h”, the negative logarithm of the EC50 (pEC50) is over 7.00 and the EC50 turned out to be 0.0046 µM. For the compound `CNC(=O)c1c(-c2ccc(F)cc2)oc2nc(CCC(F)(F)F)c(-c3cccc(C(=O)NC(C)(C#N)C(C)C)c3)cc12` (stereo not drawn) [Compound 11004], under “Hepatitis C virus, Huh-7, 72 h”, the pEC50 is over 7.00.

`CNC(=O)c1c(-c2ccc(F)cc2)oc2nc(CCC(F)(F)F)c(-c3cccc(C(=O)NC(C)(C#N)C4CC4)c3)cc12` (stereo not drawn) [Compound 11005]: the pEC50 (Hepatitis C virus, Huh-7, 72 h) was over 7.00. Turning to `CNC(=O)c1c(-c2ccc(F)cc2)oc2nc(CCC(F)(F)F)c(-c3cccc(C(=O)NC(C)(C#N)C4CC4)c3)cc12` (stereo not drawn) [Compound 11006], the pEC50 is over 7.00. For the same compound, the EC50 (Hepatitis C virus, Huh-7, 72 h) turned out to be 0.0022 µM.

With `CNC(=O)c1c(-c2ccc(F)cc2)oc2nc(CCC(F)(F)F)c(-c3cccc(C(=O)NC(C)(C#N)C4CC4)c3)cc12` (stereo not drawn) [Compound 11007], the pEC50 is over 7.00 and the EC50 turned out to be 0.0027 µM. Consider `CNC(=O)c1c(-c2ccc(F)cc2)oc2nc(CCC(F)(F)F)c(-c3cccc(C(=O)NC(C)(C#N)CF)c3)cc12` (stereo not drawn) [Compound 11012], for which the negative-log EC50 (pEC50) (Hepatitis C virus, Huh-7, 72 h) was over 7.00.

Consider `CNC(=O)c1c(-c2ccc(F)cc2)oc2nc(CCC(F)(F)F)c(-c3ccc(OC)c(C(=O)NC(C)(C)C#N)c3)cc12` [Compound 12001], for which, for the setting “Hepatitis C virus, Huh-7, 72 h”, the pEC50 was over 7.00 and the EC50 is 0.0025 µM. As for `CNC(=O)c1c(-c2ccc(F)cc2)oc2nc(CCC(F)(F)F)c(-c3ccc(OC)c(C(=O)NC4(C#N)CCC4)c3)cc12` [Compound 12002], the pEC50 (Hepatitis C virus, Huh-7, 72 h) is over 7.00.

Turning to `CNC(=O)c1c(-c2ccc(F)cc2)oc2nc(CCC(F)(F)F)c(-c3ccc(OC)c(C(=O)NC4(C#N)CCCC4)c3)cc12` [Compound 12003], the pEC50 (Hepatitis C virus, Huh-7, 72 h) was over 7.00. In the case of `CNC(=O)c1c(-c2ccc(F)cc2)oc2nc(CCC(F)(F)F)c(-c3ccc(OC)c(C(=O)NC(C)(C#N)C(C)C)c3)cc12` (stereo not drawn) [Compound 12004], for the setting “Hepatitis C virus, Huh-7, 72 h”, the pEC50 was over 7.00 and the EC50 is 0.0033 µM. As to `CNC(=O)c1c(-c2ccc(F)cc2)oc2nc(CCC(F)(F)F)c(-c3ccc(F)c(C(=O)NC(C)(C#N)C(C)C)c3)cc12` (stereo not drawn) [Compound 13002], under “Hepatitis C virus, Huh-7, 72 h”, the pEC50 was over 7.00 and the EC50 is 0.0024 µM. Take `CNC(=O)c1c(-c2ccc(F)cc2)oc2nc(CCC(F)(F)F)c(-c3ccc(F)c(C(=O)NC(C)C#N)c3)cc12` (stereo not drawn) [Compound 13003]: the negative logarithm of the EC50 (pEC50) (Hepatitis C virus, Huh-7, 72 h) is over 7.00. Take `CNC(=O)c1c(-c2ccc(F)cc2)oc2nc(CCC(F)(F)F)c(-c3ccc(F)c(C(=O)NC(C)C#N)c3)cc12` (stereo not drawn) [Compound 13004]: the pEC50 was over 7.00. Still for that read-out and setting: the figure for `CNC(=O)c1c(-c2ccc(F)cc2)oc2nc(CCC(F)(F)F)c(-c3ccc(F)c(C(=O)NC(C)C#N)c3)cc12` (stereo not drawn) [Compound 13005] is over 7.00.

Values taken from patent US9249152B2, “Cyano containing azabenzofuran compounds for the treatment of hepatitis C” (BRISTOL-MYERS SQUIBB COMPANY, priority 2014, dated 2016).
